This is an account of results in patent US6903132B2, “Non-peptide GnRH agents, pharmaceutical compositions and methods for their use” (Agouron Pharmaceuticals, Inc., priority 2002, dated 2005).

The Ki is a measure of affinity in units of concentration, obtained from inhibition or displacement. What is called Tmax is the time from dosing to the highest level.

Data set [1] can be described thus: In vitro metabolism: disappearance of parent compound in liver microsomes. In kind it is in vitro ADME. To be noted: human liver microsomes; 5 uM compound, 0.5 mg/ml microsomal protein, 2 mM NADPH, 30 minutes at 37° C. The procedure:
(§1) Human, rat, dog, and monkey liver microsomes are isolated by differential centrifugation. Specimens of human liver were obtained from the International Institute for the Advancement of Medicine (Scranton, Pa.). The disappearance of the parent compound is studied in a mixture containing 5 uM compound, 0.5 mg/ml microsomal protein, and 2 mM NADPH in 50 mM K Phosphate buffer, pH 7.4. Samples are incubated for 30 minutes at 37° C. The reaction is terminated by the addition of acetonitrile and compounds analyzed by LC-MS as described above.

Data set [2] can be described thus: Pharmacokinetics in female rats. Type of data set: in vivo, rat. The settings on record: for FR Fp.o.: AUCp.o./AUCi.v.; for Tmax: rat, plasma, po, dose and vehicle per footnote, read-out: FR Tmax hr. Here is the method:
Rats (male or female, 200-225 g) are prepared with indwelling jugular vein cannula as described by Harms et al., Applied Physiol. 36:391-398 (1974), and allowed to recover overnight with free access to the standard vivarium chow and water. […] […] The blood samples are withdrawn at specific times, plasma is immediately separated and compound extracted with ethyl acetate. The samples are analyzed by LC-MS using 30-90% gradient of ACN in 50 mM ammonium acetate.
The pharmacokinetic parameters are calculated using WinNonlin software (Scientific Consulting Inc.). The bioavailability is calculated as AUCp.o./AUCi.v., where AUCp.o. and AUCi.v. are areas under the plasma concentration-time curve after oral and i.v. administration, respectively.

The target of the next data set is T1, human GnRH receptors (Homo sapiens, UniProt P30968).
T1 construct: expressed in transfected cells; host or cells: HEK 293
T1 sequence (P30968 1-328): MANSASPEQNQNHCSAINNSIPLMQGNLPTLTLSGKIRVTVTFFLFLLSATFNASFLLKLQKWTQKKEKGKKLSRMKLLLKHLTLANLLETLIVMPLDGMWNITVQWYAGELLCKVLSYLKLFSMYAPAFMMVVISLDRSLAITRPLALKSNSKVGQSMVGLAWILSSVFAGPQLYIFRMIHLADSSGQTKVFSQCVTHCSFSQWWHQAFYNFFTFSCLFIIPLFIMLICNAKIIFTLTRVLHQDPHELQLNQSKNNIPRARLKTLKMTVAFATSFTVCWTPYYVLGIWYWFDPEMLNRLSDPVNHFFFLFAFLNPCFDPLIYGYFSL
The data set is described as follows: Radioligand binding assay: inhibition of binding of 125I-GnRH-A to GnRH receptors (membranes). The settings on record: Human GnRH receptor; competition with 125I-GnRH-A; Ki calculated from IC50 (Cheng et al.). Put shortly:
(§2)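 Membranes from HEK 293 expressing mouse or human receptor, or rat pituitaries, incubated 1 h at RT with ~0.04–0.06 nM ¹²⁵I-[des-Gly¹⁰,D-Ala⁶]GnRH ethylamide and competitor (0.1–10,000 nM) in HEPES pH 7.4 with MgCl2, EDTA, BSA. Filtration onto PEI-soaked GF/C filters, scintillation counting; Ki from IC50 by Cheng–Prusoff.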

Another data set addresses T2, rat GnRH receptor (Rattus norvegicus, UniProt P30969).
T2 construct: rat pituitaries (Pel Freez Biologicals, Rogers, Ark.) are homogenized in buffer A; tissue Pel Freez Biologicals; host or cells: rat pituitaries
T2 sequence (P30969 1-327): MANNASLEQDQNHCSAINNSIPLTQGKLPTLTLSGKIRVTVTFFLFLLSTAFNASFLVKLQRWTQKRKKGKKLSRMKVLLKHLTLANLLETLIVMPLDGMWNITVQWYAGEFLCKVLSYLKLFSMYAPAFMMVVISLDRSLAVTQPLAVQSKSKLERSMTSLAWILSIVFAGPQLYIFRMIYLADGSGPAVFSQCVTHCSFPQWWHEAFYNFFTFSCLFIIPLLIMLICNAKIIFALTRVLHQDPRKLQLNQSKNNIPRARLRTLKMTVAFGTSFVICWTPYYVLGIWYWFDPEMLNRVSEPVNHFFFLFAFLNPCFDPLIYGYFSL
Described as above. The settings on record: competition with 125I-GnRH-A, Ki calculated from IC50 (Cheng et al.). Put shortly:
as §2

For another data set, the target named is T3, mouse GnRH receptors (Mus musculus, UniProt Q01776).
T3 construct: expressed in transfected cells; host or cells: HEK 293
T3 sequence (Q01776 1-327): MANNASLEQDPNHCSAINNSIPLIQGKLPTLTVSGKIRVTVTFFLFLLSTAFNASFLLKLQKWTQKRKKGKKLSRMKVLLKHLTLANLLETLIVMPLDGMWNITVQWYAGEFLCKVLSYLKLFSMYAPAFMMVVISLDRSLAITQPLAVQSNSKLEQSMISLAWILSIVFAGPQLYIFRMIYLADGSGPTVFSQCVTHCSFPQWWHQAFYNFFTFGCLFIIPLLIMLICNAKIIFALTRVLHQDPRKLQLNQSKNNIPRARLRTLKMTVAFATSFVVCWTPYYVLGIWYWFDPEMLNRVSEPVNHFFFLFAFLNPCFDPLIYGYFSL
The description is as above. The settings on record: Mouse GnRH receptor; competition with 125I-GnRH-A; Ki calculated from IC50 (Cheng et al.). Put shortly:
as §2

Data set [3] can be described thus: In vitro metabolism: disappearance of parent compound in liver microsomes (female rat). Type of data set: in vitro ADME. The settings on record: 5 uM compound, 0.5 mg/ml microsomal protein, 2 mM NADPH, 30 minutes at 37° C. The procedure:
as §1
On the technique in general: Microsomes from liver hold many membrane-bound enzymes, among them those of drug oxidation.

Data set [4] in a line: In vitro metabolism: disappearance of parent compound in liver microsomes (male rat). In kind it is in vitro ADME. To be noted: 5 uM compound, 0.5 mg/ml microsomal protein, 2 mM NADPH, 30 minutes at 37° C. Here is the method:
as §1

The mark [5] stands for this setting: 10 mg/kg as 5 mg/ml solution in 10% cremophor 90% saline.

Values joined by “and” are separate entries in the source; they are usually repeats but may differ in a detail not shown here. Equal entries are not always repeated.

As for “5-{[-3,5,5,6,8,8-Hexamethyl-5,6,7,8-tetrahydro-2-naphthalenyl]oxy}-N′-(1,3-dimethyl-1H-pyrazolo[3,4-b]pyridin-6-yl)-2-furo hydrazide [Example F1]”, the “Huma % p. 30′” value in data set [1] came to 41%. The “FR Fp.o.” value in data set [2] (setting [5]) is on record as 5%^3. Moreover, the inhibition constant Ki at human GnRH receptors was 2 nM; on rat GnRH receptor, 5.2 nM; at mouse GnRH receptors, 3.5 nM. Moreover, the “Fem. t % rem. 30′” value in data set [3] was determined as 24%.
For `Cc1cc2c(cc1Cc1ccc(C(=O)NNc3ccc4ccccc4n3)o1)C(C)(C)CCC2(C)C` [Example C5, 5-[(3,5,5,8,8-Pentamethyl-5,6,7,8-tetrahydro-2-naphthalenyl)methyl]-N′-(2-quinolinyl]-2-furohydrazide], the “Huma % p. 30′” value in data set [1] was determined as 52%. The Ki on human GnRH receptors is 25 nM; at rat GnRH receptor, 12 nM; at mouse GnRH receptors, 10 nM.
In the case of `Cc1cc2c(cc1Cc1ccc(C(=O)NNc3nc(N)nc(C4CC4)n3)o1)C(C)(C)CCC2(C)C` [Example C6, N′-(4-amino-6-cyclopropyl-1,3,5-triazin-2-yl)-5-[(3,5,5,8,8-pentamethyl-5,6,7,8-tetrahydro-2-naphthalenyl)methyl]-2-furohydrazide], the “Huma % p. 30′” value in data set [1] came out at 75%. Moreover, in data set [4], the “Male t % p. 30′” value amounted to 95%. Moreover, the “FR Fp.o.” value in data set [2] (10 mg/kg as 5 mg/ml solution in 10% DMSO 105 cremophor 80% saline) was below 1%^2. For the same compound, the Ki on human GnRH receptors is 42 nM; on rat GnRH receptor, 6 nM; on mouse GnRH receptors, 18 nM.
In the case of `Cc1cc2c(cc1Cc1ccc(C(=O)NNc3ccc(C(F)(F)F)cn3)o1)C(C)(C)CCC2(C)C` [Example C9, 5-[(3,5,5,8,8-Pentamethyl-5,6,7,8-tetrahydro-2-naphthalenyl)methyl]-N′-[5-(trifluoromethyl)-2-pyridinyl]-2-furohydrazide], the “Huma % p. 30′” value in data set [1] is reported as 61%. Further, the “Male t % p. 30′” value in data set [4] is reported as 94%. Also, the Ki is 61 nM on human GnRH receptors, 47 nM at rat GnRH receptor and 30 nM at mouse GnRH receptors. For the same compound, in data set [3], the “Fem. t % rem. 30′” value was determined as 14%.
As for `CC(=O)c1c(NNC(=O)c2ccc(Cc3cc4c(cc3C)C(C)(C)OC4(C)C)o2)nc2c(c(C)nn2C)c1C` [Example E2, N-(5-acetyl-1,3,4-trimethyl-1H-pyrazolo[3,4-b]pyridin-6yl)-5-[(1,1,3,3,6-pentamethyl-1,3-dihydro-2-benzofuran-5-yl)methyl]-2-furohydrazide], the “Huma % p. 30′” value in data set [1] worked out at 30%. Besides, the Ki on human GnRH receptors was 300 nM.
The like results for `Cc1cc(Cl)c(C(C)C)c(Oc2ccc(C(=O)NNc3cc(C)c4c(C)nn(C)c4n3)o2)c1` [Example I3, 5-(3-Chloro-2-isopropyl-5-methylphenoxy)-N′-(1,3,4-trimethyl-1H-pyrazolo[3,40b]pyridin-6-yl)-2-furohydrazide] were, in that order, 43% and 5770 nM.
For `COc1cc2c(cc1Oc1ccc(C(=O)NNc3cc(C)c4c(C)nn(C)c4n3)o1)C(C)(C)CC2=O` [Example I5, 5-[(6-Methoxy-3,3-dimethyl-1-oxo-2,3-dihydro-1H-inden-5-yl)oxy]-N′-(1,3,4-trimethyl-1H-pyrazolo[3,4-b]pyridin-6-yl)-2-furohydrazide] the same measures were 58% and 1210 nM.
As to `COc1cc(C)c(Cl)c(C)c1Cc1ccc(C(=O)NNc2cc(C)c3c(C)nn(C)c3n2)o1` [Example J1], the “Male t % p. 30′” value in data set [4] was 99% and 95%. Besides, the Tmax in data set [2] was found to be 60 min. In addition, the Ki at human GnRH receptors was 450 nM.
Consider `Cc1cc(C)c(Cc2ccc(C(=O)NNc3cc(C)c4c(C)nn(C)c4n3)o2)c(C)c1Br` [Example J2], for which the “FR Fp.o.” value in data set [2] (setting [5]) worked out at 6%^3. Also, the Tmax in data set [2] amounted to 30 min. Moreover, the Ki on human GnRH receptors was 550 nM.
Consider `Cc1cc(C)c(-c2ccccc2)cc1Cc1ccc(C(=O)NNc2cc(C)c3c(C)nn(C)c3n2)o1` [Example J18, 5-[(4,6-dimethyl[1,1′-biphenyl]-3-yl)methyl]-N′-(1,3,4-trimethyl-1H-pyrazolo[3,4-b]pyridin-6-yl)-2-furohydrazide], for which the inhibition constant (Ki) is 170 nM on human GnRH receptors, 290 nM on rat GnRH receptor and 480 nM at mouse GnRH receptors.
With `COc1ccc(C(C)(C)C)cc1Cc1ccc(C(=O)NNc2cc(C)c3c(C)nn(C)c3n2)o1` [Example J19, 5-[5-(tert-butyl)-2-methoxybenzyl]-N′-(1,3,4-trimethyl-1H-pyrazolo[3,4-b]pyridin-6-yl)-2-furohydrazide], the figures for the Ki at human GnRH receptors, at rat GnRH receptor and on mouse GnRH receptors were 140 nM, 230 nM and 320 nM, respectively.
Turning to `Cc1sc2c(c1Cc1ccc(C(=O)NNc3cc(C)c4c(C)nn(C)c4n3)o1)C(C)(C)CCC2(C)C` [Example J23], the Ki was 140 nM on human GnRH receptors, 660 nM on rat GnRH receptor and 280 nM at mouse GnRH receptors.
For `COc1c(C(C)C)cc(Cl)c(C)c1Cc1ccc(C(=O)NNc2cc(C)c3c(C)nn(C)c3n2)o1` [Example J24, 5-(3-chloro-5-isopropyl-6-methoxy-2-methylbenzyl)-N′-(1,3,4-trimethyl-1H-pyrazolo[3,4-b]pyridin-6-yl)-2-furohydrazide] the same measures were 130 nM, 1130 nM and 400 nM.
As to `Cc1sc2c(c1Cc1ccc(C(=O)NNc3cc(C)c4c(C)nn(C)c4n3)o1)C(C)(C)CCC2(C)C` [Example J28, 5-(2,4,4,7,7-Pentamethyl-4,5,6,7-tetrahydro-benzo[b]thiophen-3-ylmethyl)-furan-2-carboxylic acid N′-(1,3,4-trimethyl-1H-pyrazolo[3,4-b]pyridin-6-yl)-hydrazide], the figures for the Ki on human GnRH receptors, on rat GnRH receptor and on mouse GnRH receptors were 30 nM, 245 nM and 130 nM, respectively.
For the compound `Cc1cc2c(cc1Oc1ccc(C(=O)NNc3cc(C)c4c(C)nn(C)c4n3)o1)C(C)(C)C(C)C2(C)C` (stereo not shown) [Example M4, 5-(1,1,2,3,3,6-Hexamethyl-indan-5-yloxy)-furan-2-carboxylic acid N′-(1,3,4-trimethyl-1H-pyrazolo[3,4-b]pyridin-6-yl)-hydrazide], the Ki is 1.8 nM on human GnRH receptors, 3.9 nM on rat GnRH receptor and 3.7 nM on mouse GnRH receptors.
The like results for `Cc1cc2c(cc1Oc1ccc(C(=O)NNc3cc(C)c4c(C)nn(C)c4n3)o1)C(C)(C)OC2` [Example N2, 5-(3,3,6-Trimethyl-1,3-dihydro-isobenzofuran-5-yloxy)-furan-2-carboxylic acid N′-(1,3,4-trimethyl-1H-pyrazolo[3,4-b]pyridin-6-yl)-hydrazide] were, in that order, 28 nM, 86 nM and 22 nM.
